Patent publication US9695155B2, “Herbicidal substituted pyrimidinyloxy benzene compounds” (E. I. DU PONT DE NEMOURS AND COMPANY, priority 2013, dated 2017)

Legend:
[1] = tested on: barnyardgrass; assay: Test A preemergence; type: in vivo, Echinochloa crus-galli; details: for Barnyardgrass plant response rating: 500 g ai/ha
Procedure, shortened: (§1)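 Visual 0–100 rating (100 = complete control) taken about 10 d post-treatment relative to untreated checks. Preemergence: directed soil spray on sown loam/sand pots. Postemergence: seedlings 2–10 cm, 1–2 leaf. Non-phytotoxic solvent formulation with surfactant.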

[2] = tested on: barnyardgrass; assay: Test C flooded paddy test; type: in vivo, Echinochloa crus-galli; details: Flood, scale 0 to 100 (0 no effect, 100 complete control), 13 to 15 days
Excerpt: (§2) At time of treatment, test pots were flooded to 3 cm above the soil surface, treated by application of test compounds directly to the paddy water, and then maintained at that water depth for the duration of the test. Treated plants and controls were maintained in a greenhouse for 13 to 15 days, after which time all species were compared to controls and visually evaluated. […] A dash (-) response means no test result.

[3] = tested on: wheat; assay: Test A postemergence; type: in vivo, Triticum aestivum
Procedure, shortened: as §1

[4] = tested on: corn; assay: Test A preemergence; type: in vivo, Zea mays; details: for Corn plant response rating: 500 g ai/ha
Procedure, shortened: as §1

[5] = tested on: pigweed; assay: Test A postemergence; type: in vivo, Amaranthus retroflexus
Procedure, shortened: as §1

[6] = tested on: large (Lg) crabgrass; assay: Test A preemergence; type: in vivo, Digitaria sanguinalis; details: for Crabgrass, Large plant response rating: 500 g ai/ha
Procedure, shortened: as §1

[7] = tested on: rice; assay: Test C flooded paddy test; type: in vivo, Oryza sativa; details: Flood, scale 0 to 100 (0 no effect, 100 complete control), 13 to 15 days
Excerpt: as §2

[8] = tested on: sedge, umbrella; assay: Test B flooded paddy test; type: in vivo, Cyperus difformis; details: Flood, 250 g ai/ha; 0 to 100 scale where 0 is no effect and 100 is complete control
Procedure, shortened: (§3)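 Plants were grown to the 2-leaf stage, then pots were flooded to 3 cm above the soil and compounds were applied directly into the paddy water. That depth was held throughout, and after 13 to 15 days in the greenhouse injury was rated visually against controls on a 0–100 scale (0 no effect, 100 complete control).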

[9] = tested on: velvetleaf; assay: Test A preemergence; type: in vivo, Abutilon theophrasti; details: for Velvetleaf plant response rating: 500 g ai/ha
Procedure, shortened: as §1

[10] = tested on: velvetleaf; assay: Test A postemergence; type: in vivo, Abutilon theophrasti
Procedure, shortened: as §1

[11] = tested on: large (Lg) crabgrass; assay: Test A postemergence; type: in vivo, Digitaria sanguinalis
Procedure, shortened: as §1

[12] = tested on: corn; assay: Test A postemergence; type: in vivo, Zea mays
Procedure, shortened: as §1

[13] = tested on: giant foxtail; assay: Test A postemergence; type: in vivo, Setaria faberii
Procedure, shortened: as §1

[14] = tested on: pigweed; assay: Test A preemergence; type: in vivo, Amaranthus retroflexus; details: for Pigweed plant response rating: 500 g ai/ha
Procedure, shortened: as §1

[15] = tested on: ducksalad; assay: Test C flooded paddy test; type: in vivo, Heteranthera limosa; details: Flood, scale 0 to 100 (0 no effect, 100 complete control), 13 to 15 days
Excerpt: as §2

[16] = tested on: wheat; assay: Test A preemergence; type: in vivo, Triticum aestivum; details: for Wheat plant response rating: 500 g ai/ha
Procedure, shortened: as §1

[17] = tested on: rice; assay: Test B flooded paddy test; type: in vivo, Oryza sativa; details: Flood, 250 g ai/ha; 0 to 100 scale where 0 is no effect and 100 is complete control
Procedure, shortened: as §3

[18] = tested on: giant foxtail; assay: Test A preemergence; type: in vivo, Setaria faberii; details: for Foxtail, Giant plant response rating: 500 g ai/ha
Procedure, shortened: as §1

[19] = tested on: Heteranthera limosa; assay: Test B flooded paddy test; type: in vivo; details: Flood, 250 g ai/ha; 0 to 100 scale where 0 is no effect and 100 is complete control
Procedure, shortened: as §3

[20] = tested on: morningglory; assay: Test A postemergence; type: in vivo, Ipomoea spp.
Procedure, shortened: as §1

[21] = tested on: barnyardgrass; assay: Test B flooded paddy test; type: in vivo, Echinochloa crus-galli; details: Flood, 250 g ai/ha; 0 to 100 scale where 0 is no effect and 100 is complete control
Procedure, shortened: as §3

[22] = tested on: sedge, umbrella; assay: Test C flooded paddy test; type: in vivo, Cyperus difformis; details: Flood, scale 0 to 100 (0 no effect, 100 complete control), 13 to 15 days
Excerpt: as §2

[23] = tested on: barnyardgrass; assay: Test A postemergence; type: in vivo, Echinochloa crus-galli
Procedure, shortened: as §1

[24] = tested on: morningglory; assay: Test A preemergence; type: in vivo, Ipomoea spp.; details: for Morningglory plant response rating (0 to 100 scale): 125 g ai/ha; for Morningglory plant response rating: 500 g ai/ha, 0 to 100 scale where 0 is no effect and 100 is complete control
Procedure, shortened: as §1

[25] = 125 g ai/ha, 0 to 100 scale where 0 is no effect and 100 is complete control
[26] = 0 to 100 scale, 0 no effect, 100 complete control, approx. 10 days
[27] = 500 g ai/ha, 0 to 100 scale, 0 no effect, 100 complete control
[28] = 0 to 100 scale where 0 is no effect and 100 is complete control
[29] = 500 g ai/ha, 0 to 100 scale where 0 is no effect and 100 is complete control

Clc1cnc(Oc2ccccc2-n2cnc(Br)c2)nc1 [Compound 34]
50: Barnyardgrass plant response rating [1, 26] | Plant response rating, Crabgrass, Large [11, 25] | Plant response rating, Barnyardgrass [23, 27]
0: Plant response rating, Barnyardgrass [1, 25] | Plant response rating, Barnyardgrass ([2]; 31 g ai/ha) | Plant response rating, Barnyardgrass ([2]; 62 g ai/ha) | Plant response rating, Barnyardgrass ([2]; 125 g ai/ha) | Plant response rating, Wheat [3, 25] | Plant response rating, Corn [4, 25] | Corn plant response rating [4, 26] | Plant response rating, Rice ([7]; 31 g ai/ha) | Plant response rating, Rice ([7]; 62 g ai/ha) | Plant response rating, Rice ([7]; 125 g ai/ha) | Plant response rating, Rice ([7]; 250 g ai/ha) | Plant response rating, Ducksalad ([15]; 31 g ai/ha) | Plant response rating, Ducksalad ([15]; 62 g ai/ha) | Plant response rating, Wheat [16, 25] | Wheat plant response rating [16, 26] | Plant response rating, Sedge, Umbrella ([22]; 31 g ai/ha) | Plant response rating, Sedge, Umbrella ([22]; 62 g ai/ha) | Plant response rating, Sedge, Umbrella ([22]; 125 g ai/ha)
100: Plant response rating, Pigweed [5, 27] | Plant response rating, Velvetleaf [10, 27] | Pigweed plant response rating [14, 26] | Foxtail, Giant plant response rating [18, 26]
20: Plant response rating, Wheat [3, 27] | Plant response rating, Corn [12, 27] | Plant response rating, Ducksalad ([15]; 125 g ai/ha) | Plant response rating, Barnyardgrass [21] | Plant response rating, Barnyardgrass [23, 25]
75: Plant response rating, Ducksalad ([15]; 250 g ai/ha)
80: Velvetleaf plant response rating [9, 26] | Plant response rating, Velvetleaf [10, 25] | Plant response rating, Pigweed [14, 25] | Plant response rating, Morningglory [20, 27]
10: Plant response rating, Barnyardgrass ([2]; 250 g ai/ha) | Plant response rating, Corn [12, 25]
70: Plant response rating, Crabgrass, Large [6, 25] | Plant response rating, Foxtail, Giant [13, 27] | Plant response rating, Sedge, Umbrella ([22]; 250 g ai/ha)
90: Plant response rating, Pigweed [5, 25] | Crabgrass, Large plant response rating [6, 26] | Plant response rating, Sedge, Umbrella [8] | Plant response rating, Ducksalad [19]
60: Plant response rating, Velvetleaf [9, 25] | Plant response rating, Crabgrass, Large [11, 27] | Plant response rating, Morningglory [20, 25]
30: Plant response rating, Foxtail, Giant [13, 25] | Plant response rating, Rice [17] | Plant response rating, Foxtail, Giant [18, 25]

FC(F)c1cccc(Oc2ncc(Cl)cn2)c1-n1cc(I)cn1 [Compound 184]
50: Plant response rating, Sedge, Umbrella ([22]; 125 g ai/ha)
20: Corn plant response rating (0 to 100 scale) ([4]; 125 g ai/ha) | Corn plant response rating [4, 28] | Velvetleaf plant response rating (0 to 100 scale) ([9]; 125 g ai/ha) | Corn plant response rating [12, 25]
90: Plant response rating, Wheat [3, 29] | Plant response rating, Velvetleaf [10, 29] | Morningglory plant response rating [24] | Plant response rating, Morningglory [20, 29] | Plant response rating, Barnyardgrass [23, 29]
80: Velvetleaf plant response rating [10, 25] | Plant response rating, Crabgrass, Large [11, 29] | Plant response rating, Foxtail, Giant [13, 29]
30: Barnyardgrass plant response rating (0 to 100 scale, 0 is no effect, 100 is complete control) ([1]; 125 g ai/ha) | Wheat plant response rating [3, 25] | Plant response rating, Ducksalad ([15]; 62 g ai/ha) | Plant response rating, Ducksalad ([15]; 125 g ai/ha) | Wheat plant response rating [16, 28]
60: Velvetleaf plant response rating [9, 28] | Morningglory plant response rating [20, 25] | Barnyardgrass plant response rating [23, 25]
10: Plant response rating, Rice [17]
70: Crabgrass, Large plant response rating [11, 25] | Plant response rating, Corn [12, 29] | Foxtail, Giant plant response rating [13, 25]
0: Plant response rating, Barnyardgrass ([2]; 31 g ai/ha) | Plant response rating, Barnyardgrass ([2]; 62 g ai/ha) | Plant response rating, Barnyardgrass ([2]; 125 g ai/ha) | Plant response rating, Barnyardgrass ([2]; 250 g ai/ha) | Plant response rating, Rice ([7]; 31 g ai/ha) | Plant response rating, Rice ([7]; 62 g ai/ha) | Plant response rating, Rice ([7]; 125 g ai/ha) | Plant response rating, Rice ([7]; 250 g ai/ha) | Plant response rating, Ducksalad ([15]; 31 g ai/ha) | Wheat plant response rating (0 to 100 scale) ([16]; 125 g ai/ha) | Morningglory plant response rating (0 to 100 scale) [24] | Plant response rating, Barnyardgrass [21] | Plant response rating, Sedge, Umbrella ([22]; 31 g ai/ha) | Plant response rating, Sedge, Umbrella ([22]; 62 g ai/ha)
95: Plant response rating, Sedge, Umbrella [8]
75: Plant response rating, Ducksalad ([15]; 250 g ai/ha) | Plant response rating, Sedge, Umbrella ([22]; 250 g ai/ha)
100: Barnyardgrass plant response rating [1, 28] | Pigweed plant response rating [5, 25] | Plant response rating, Pigweed [5, 29] | Crabgrass, Large plant response rating (0 to 100 scale) ([6]; 125 g ai/ha) | Crabgrass, Large plant response rating [6, 28] | Pigweed plant response rating (0 to 100 scale) ([14]; 125 g ai/ha) | Pigweed plant response rating [14, 28] | Foxtail, Giant plant response rating (0 to 100 scale) ([18]; 125 g ai/ha) | Foxtail, Giant plant response rating [18, 28] | Plant response rating, Ducksalad [19]

COc1cnc(Oc2ccccc2-n2cc(Br)cn2)nc1 [Compound 234]
60: Plant response rating, Crabgrass, Large [11, 29] | Foxtail, Giant plant response rating (0 to 100 scale) ([18]; 125 g ai/ha) | Plant response rating, Morningglory [20, 29]
70: Velvetleaf plant response rating [10, 25] | Plant response rating, Foxtail, Giant [13, 29] | Plant response rating, Barnyardgrass [23, 29]
30: Plant response rating, Corn [12, 29] | Foxtail, Giant plant response rating [13, 25] | Plant response rating, Ducksalad ([15]; 250 g ai/ha)
40: Velvetleaf plant response rating (0 to 100 scale) ([9]; 125 g ai/ha) | Morningglory plant response rating [20, 25] | Plant response rating, Sedge, Umbrella ([22]; 250 g ai/ha)
0: Plant response rating, Barnyardgrass ([2]; 31 g ai/ha) | Plant response rating, Barnyardgrass ([2]; 62 g ai/ha) | Plant response rating, Barnyardgrass ([2]; 125 g ai/ha) | Plant response rating, Barnyardgrass ([2]; 250 g ai/ha) | Corn plant response rating (0 to 100 scale) ([4]; 125 g ai/ha) | Plant response rating, Rice ([7]; 31 g ai/ha) | Plant response rating, Rice ([7]; 62 g ai/ha) | Plant response rating, Rice ([7]; 125 g ai/ha) | Plant response rating, Rice ([7]; 250 g ai/ha) | Plant response rating, Ducksalad ([15]; 31 g ai/ha) | Plant response rating, Ducksalad ([15]; 62 g ai/ha) | Plant response rating, Ducksalad ([15]; 125 g ai/ha) | Wheat plant response rating (0 to 100 scale) ([16]; 125 g ai/ha) | Wheat plant response rating [16, 28] | Morningglory plant response rating (0 to 100 scale) [24] | Plant response rating, Sedge, Umbrella ([22]; 31 g ai/ha) | Plant response rating, Sedge, Umbrella ([22]; 62 g ai/ha) | Plant response rating, Sedge, Umbrella ([22]; 125 g ai/ha)
90: Corn plant response rating [4, 28] | Crabgrass, Large plant response rating (0 to 100 scale) ([6]; 125 g ai/ha) | Plant response rating, Sedge, Umbrella [8] | Pigweed plant response rating (0 to 100 scale) ([14]; 125 g ai/ha) | Foxtail, Giant plant response rating [18, 28] | Plant response rating, Ducksalad [19]
100: Barnyardgrass plant response rating [1, 28] | Pigweed plant response rating [5, 25] | Plant response rating, Pigweed [5, 29] | Crabgrass, Large plant response rating [6, 28] | Velvetleaf plant response rating [9, 28] | Plant response rating, Velvetleaf [10, 29] | Pigweed plant response rating [14, 28] | Morningglory plant response rating [24]
20: Barnyardgrass plant response rating (0 to 100 scale, 0 is no effect, 100 is complete control) ([1]; 125 g ai/ha) | Wheat plant response rating [3, 25] | Plant response rating, Wheat [3, 29] | Crabgrass, Large plant response rating [11, 25] | Corn plant response rating [12, 25] | Plant response rating, Rice [17] | Plant response rating, Barnyardgrass [21] | Barnyardgrass plant response rating [23, 25]
